Common to all, as to type: biochemical
Common to all, as to settings: RB Protein 3 μM substrate, 33P-ATP 1 μM, 10-dose IC50 mode, 3-fold dilution starting at 0.1 μM

One assay addresses CDK6/cyclin D1 (Homo sapiens, UniProt Q00534). Nature of the assay: Radiometric 33P-ATP filter-binding kinase assay, CDK6/cyclin D1. On the procedure: (§1) CDK4/cyclin D1, CDK4/cyclin D3, CDK6/cyclin D1, and CDK6/cyclin D3 were added to freshly prepared substrate solution (RB Protein, 3 μM) which was in freshly made reaction buffer (20 mM Hepes (pH 7.5), 10 mM MgCl2, 1 mM EGTA, 0.02% Brij35, 0.02 mg/mL BSA, 0.1 mM Na3VO4, 2 mM DTT, 1% DMSO) and gently mixed, respectively. Compound 1.HCl was tested in a 10-dose IC50 mode with 3-fold dilution starting at 0.1 μM. Compound 1.HCl was prepared and diluted in DMSO and was delivered into the kinases/substrate reaction mixture by Acoustic technology (Echo550; nanoliter range), then incubated for 20 min at room temperature. Then 33P-ATP (1 μM) was added into the reaction mixture to initiate the reaction. The kinase reaction was incubated at room temperature for 2 hours. The reactions were spotted onto P81 ion-exchange paper and radioactivity was detected by filter-binding method. The kinase activity data were expressed as the percent remaining kinase activity in test samples compared to vehicle (Dimethyl Sulfoxide) reactions. […] HCl were determined for all 4 kinases: CDK4/cyclin D1, CDK4/cyclin D3, CDK6/cyclin D1, and CDK6/cyclin D3 and are shown in Table 2, as compared with those of ethylated counterpart, namely N-(5-((4-ethylpiperazin-1-yl)methyl)pyridin-2-yl)-5-fluoro-4-(3-isopropyl-2-methyl-2H-indazol-5-yl)pyrimidin-2-amine, or compound 37. […]

In another assay the target is CDK4/cyclin D3 (Homo sapiens, UniProt P11802). Nature of the assay: Radiometric 33P-ATP filter-binding kinase assay, CDK4/cyclin D3. On the procedure:
as §1

For another assay, the target named is CDK4/cyclin D1 (Homo sapiens, UniProt P11802). The experiment in a line: Radiometric 33P-ATP filter-binding kinase assay, CDK4/cyclin D1. On the procedure:
as §1

Another assay addresses CDK6/cyclin D3 (Homo sapiens, UniProt Q00534). Nature of the assay: Radiometric 33P-ATP filter-binding kinase assay, CDK6/cyclin D3. As for the experimental part:
as §1

Counter-ions that a name gives are not always drawn.

Sequence of CDK4/cyclin D1 (P11802 whole entry, species assumed): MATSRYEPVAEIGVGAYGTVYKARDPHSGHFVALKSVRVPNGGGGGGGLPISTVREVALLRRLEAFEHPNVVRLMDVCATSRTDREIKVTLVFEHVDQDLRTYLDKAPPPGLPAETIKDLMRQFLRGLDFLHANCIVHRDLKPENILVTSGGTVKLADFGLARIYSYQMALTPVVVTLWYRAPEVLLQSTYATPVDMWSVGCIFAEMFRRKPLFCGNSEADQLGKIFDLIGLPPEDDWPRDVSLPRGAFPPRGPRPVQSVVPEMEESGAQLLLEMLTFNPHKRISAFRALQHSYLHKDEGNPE
Sequence of CDK4/cyclin D1 (P24385 whole entry partner, species assumed): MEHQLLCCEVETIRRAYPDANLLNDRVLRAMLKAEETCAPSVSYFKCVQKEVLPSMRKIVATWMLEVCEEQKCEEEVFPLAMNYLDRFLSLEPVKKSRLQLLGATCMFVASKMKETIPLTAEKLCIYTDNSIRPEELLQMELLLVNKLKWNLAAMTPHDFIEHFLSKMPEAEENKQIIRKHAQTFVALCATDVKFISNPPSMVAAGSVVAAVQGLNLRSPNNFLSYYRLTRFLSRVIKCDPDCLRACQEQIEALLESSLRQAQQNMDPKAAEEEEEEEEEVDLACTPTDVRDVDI
Sequence of CDK4/cyclin D3 (P11802 whole entry, species assumed): as the sequence (P11802 whole entry, species assumed) above
Sequence of CDK4/cyclin D3 (P30281 whole entry partner, species assumed): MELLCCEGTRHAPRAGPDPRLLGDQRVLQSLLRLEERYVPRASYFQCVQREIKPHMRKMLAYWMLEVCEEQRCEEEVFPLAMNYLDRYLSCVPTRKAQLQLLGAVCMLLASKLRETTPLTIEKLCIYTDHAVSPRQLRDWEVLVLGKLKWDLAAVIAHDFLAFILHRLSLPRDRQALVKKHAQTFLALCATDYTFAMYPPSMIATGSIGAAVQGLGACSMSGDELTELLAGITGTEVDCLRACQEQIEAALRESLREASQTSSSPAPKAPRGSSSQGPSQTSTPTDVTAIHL
Sequence of CDK6/cyclin D1 (Q00534 whole entry, species assumed): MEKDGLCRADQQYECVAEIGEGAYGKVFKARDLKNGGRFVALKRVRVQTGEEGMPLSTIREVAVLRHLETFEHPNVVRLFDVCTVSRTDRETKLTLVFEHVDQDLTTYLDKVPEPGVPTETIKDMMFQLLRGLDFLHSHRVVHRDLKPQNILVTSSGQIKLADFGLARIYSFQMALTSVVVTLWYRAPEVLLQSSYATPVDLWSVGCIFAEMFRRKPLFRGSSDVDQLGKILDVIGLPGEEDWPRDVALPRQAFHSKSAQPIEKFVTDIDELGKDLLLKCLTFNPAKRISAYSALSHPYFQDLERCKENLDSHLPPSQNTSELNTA
Sequence of CDK6/cyclin D1 (P24385 whole entry partner, species assumed): as the sequence (P24385 whole entry partner, species assumed) above
Sequence of CDK6/cyclin D3 (Q00534 whole entry, species assumed): as the sequence (Q00534 whole entry, species assumed) above
Sequence of CDK6/cyclin D3 (P30281 whole entry partner, species assumed): as the sequence (P30281 whole entry partner, species assumed) above

With `CC(C)c1c2cc(-c3nc(Nc4ccc(CN5CCNCC5)cn4)ncc3F)ccc2nn1C` [1•HCl, 5-Fluoro-4-(3-isopropyl-2-methyl-2H-indazol-5-yl)-N-(5-(piperazin-1-ylmethyl)pyridin-2-yl)pyrimidin-2-amine hydrochloride], the IC50 at CDK6/cyclin D1 turned out to be 1.11 nM; at CDK4/cyclin D3, 3.99 nM; on CDK4/cyclin D1, 0.705 nM; on CDK6/cyclin D3, 25.6 nM.
The like results for `CCN1CCN(Cc2ccc(Nc3ncc(F)c(-c4ccc5nn(C)c(C(C)C)c5c4)n3)nc2)CC1` [Compound 37, N-(5-((4-ethylpiperazin-1-yl)methyl)pyridin-2-yl)-5-fluoro-4-(3-isopropyl-2-methyl-2H-indazol-5-yl)pyrimidin-2-amine] were, in that order, 23.8 nM, 1.98 nM, 1.47 nM and 5.66 nM.

Source of the values: US11352341B2, “2H-indazole derivatives as CDK4 and CDK6 inhibitors and therapeutic uses thereof” (Beta Pharma, Inc., priority 2018, dated 2022).
